Values of other authors, collected in patent US4894388A, “Glycosidase inhibitors and use thereof” (priority 1988, dated 1990).

System: human immunodeficiency virus (HIV)
Settings: background literature; cited from earlier work

Row | Structure (SMILES) | inhibition of HIV synctium formation and virus replication (in words)
1 | OCC1NC(CO)C(O)C1O (stereo not drawn) [2,5-dihydroxymethyl-3,4-dihydroxypyrrolidine] | found to inhibit human immunodeficiency virus (HIV) synctium formation and virus replication
2 | O[C@H]1[C@H](O)[C@@H](O)CN2CC[C@H](O)[C@H]12 [castanospermine] | found to inhibit human immunodeficiency virus (HIV) synctium formation and virus replication
3 | OC[C@H]1NC[C@H](O)[C@@H](O)[C@@H]1O [1-deoxynojirimycin (DNJ), 1-deoxynojirimycin] | found to inhibit human immunodeficiency virus (HIV) synctium formation and virus replication
